Drawing on PubChem BioAssay (NCI), this text covers TGI for 7 compounds.

Test systems include UACC-257 melanoma; UACC-62 melanoma; M14 melanoma; DU-145 prostate; SK-MEL-2 melanoma; HOP-62 NSCLC; 786-0 renal; SN12C renal; SF-295 CNS; K-562 leukemia; SK-OV-3 ovarian; UO-31 renal; BT-549 breast; OVCAR-4 ovarian; PC-3 prostate; NCI/ADR-RES ovarian; LOX IMVI melanoma; OVCAR-5 ovarian; KM12 colon; RXF 393 renal.
Assay in all cases: growth of human tumour cells (NCI), 48 h

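Results reflect a 48-hour exposure of cells in 96-well plates to compound at five concentrations. The concentration for full growth arrest is given as TGI.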 Some results are limits rather than exact numbers.

With `CCOC(=O)Cc1c(C(=O)OCC)[n+](=O)c2cc(Cl)c(Cl)cc2n1[O-]`, the TGI with UACC-257 melanoma stood at 5.51 µM; with UACC-62 melanoma, 5.45 µM; in the assay on M14 melanoma, 5.98 µM; with DU-145 prostate it was 3.68 µM; in the assay on SK-MEL-2 melanoma it was 7.73 µM; in the assay with HOP-62 NSCLC it was 4.27 µM. Further, the TGI in the assay on 786-0 renal is 3.84 µM; in the assay with SN12C renal it was 6.95 µM; in the assay on SF-295 CNS it was 13.5 µM; with K-562 leukemia, 5.65 µM; with SK-OV-3 ovarian, 11.9 µM; in the assay on UO-31 renal it was 3.36 µM. Further, the TGI in the assay with BT-549 breast worked out at 6.53 µM; with OVCAR-4 ovarian, 3.51 µM; in the assay on PC-3 prostate, 4.69 µM; with NCI/ADR-RES ovarian it was 8.61 µM; in the assay on LOX IMVI melanoma, 4.65 µM; in the assay with OVCAR-5 ovarian it was 5.24 µM. The TGI was 2.95 µM in the assay with KM12 colon and 4.91 µM with RXF 393 renal.

In the case of `Cc1ccc(C2=CC(=O)/C(=C\C(=O)c3ccc(Br)cc3)O2)c(C)c1`, the TGI in the assay with UACC-257 melanoma is more than 48.6 µM; with UACC-62 melanoma it was 22.7 µM; with M14 melanoma, 35.3 µM; in the assay with DU-145 prostate it was more than 69.5 µM; in the assay on SK-MEL-2 melanoma, more than 100 µM; with HOP-62 NSCLC it was more than 66.7 µM. The TGI is 16 µM in the assay with 786-0 renal; more than 21.8 µM with SN12C renal; more than 54.2 µM with SF-295 CNS; 16.4 µM in the assay with K-562 leukemia; 29 µM in the assay with SK-OV-3 ovarian; 27.7 µM in the assay with UO-31 renal. In addition, the TGI in the assay with BT-549 breast was 16.2 µM; in the assay on OVCAR-4 ovarian it was 23.9 µM; in the assay on PC-3 prostate, 11.6 µM; with NCI/ADR-RES ovarian, 29.4 µM; with LOX IMVI melanoma, more than 21.1 µM; with OVCAR-5 ovarian, 56.7 µM. Further, the TGI in the assay on KM12 colon came to 48.6 µM; in the assay with RXF 393 renal, 14.1 µM.

Regarding `CCOC(=O)[C@@]12C[C@](/C=C/OC)(O[Si](C)(C)C)[C@@]13c1cc(OC)c(OC)cc1CCN3C(=O)C2=O`, the TGI with UACC-257 melanoma, with UACC-62 melanoma, in the assay with M14 melanoma, in the assay on DU-145 prostate, in the assay on SK-MEL-2 melanoma and in the assay on HOP-62 NSCLC was more than 100 µM throughout. In addition, the TGI in the assay on 786-0 renal, with SN12C renal, in the assay on SF-295 CNS, in the assay with K-562 leukemia, with SK-OV-3 ovarian and in the assay with UO-31 renal was more than 100 µM throughout. Further, the TGI in the assay with BT-549 breast, in the assay on OVCAR-4 ovarian, with PC-3 prostate, with NCI/ADR-RES ovarian, in the assay with LOX IMVI melanoma and in the assay on OVCAR-5 ovarian was more than 100 µM in each case. Besides, the TGI in the assay on KM12 colon and in the assay with RXF 393 renal was more than 100 µM each time.

As for `CCOC(=O)C(C)c1nc2cc(F)c(F)cc2[nH]c1=O` (centres undefined), the TGI in the assay on UACC-257 melanoma, in the assay with UACC-62 melanoma, with M14 melanoma, in the assay on DU-145 prostate, with SK-MEL-2 melanoma and in the assay on HOP-62 NSCLC was more than 100 µM each time. Further, the TGI in the assay with 786-0 renal, with SN12C renal, with SF-295 CNS, in the assay on K-562 leukemia, in the assay on SK-OV-3 ovarian and in the assay with UO-31 renal was more than 100 µM in each case. The TGI with BT-549 breast, in the assay with OVCAR-4 ovarian, in the assay on PC-3 prostate, in the assay with NCI/ADR-RES ovarian, in the assay on LOX IMVI melanoma and in the assay with OVCAR-5 ovarian was more than 100 µM throughout. Besides, the TGI with KM12 colon and with RXF 393 renal was more than 100 µM throughout.

Regarding `Cc1nn2c(=O)c([N+](=O)[O-])c(/C=C/c3ccc(F)cc3)nc2s1`, the TGI in the assay with UACC-257 melanoma is 22.3 µM; in the assay with UACC-62 melanoma, 17.5 µM; in the assay with M14 melanoma, 16.4 µM; in the assay on DU-145 prostate it was more than 31.6 µM; with SK-MEL-2 melanoma it was 19.3 µM; in the assay on HOP-62 NSCLC, 22.9 µM. The TGI with 786-0 renal is 20.9 µM; with SN12C renal, 21.2 µM; with SF-295 CNS it was 22.8 µM; in the assay on K-562 leukemia, more than 31.6 µM; in the assay with SK-OV-3 ovarian it was more than 31.6 µM; in the assay with UO-31 renal it was 16.2 µM. Also, the TGI in the assay on BT-549 breast is 18.8 µM; in the assay with OVCAR-4 ovarian it was 19.5 µM; in the assay on PC-3 prostate, 22 µM; in the assay with NCI/ADR-RES ovarian it was 25.1 µM; in the assay on LOX IMVI melanoma it was 9.19 µM; in the assay with OVCAR-5 ovarian it was 18 µM. The TGI with KM12 colon amounted to 16.3 µM; with RXF 393 renal it was 10.7 µM.

Regarding `Cc1cccc2c(=O)c3c(O)cc(O)cc3n(C)c12`, the TGI in the assay on UACC-257 melanoma, with UACC-62 melanoma, with M14 melanoma, in the assay with DU-145 prostate, in the assay with SK-MEL-2 melanoma and in the assay on HOP-62 NSCLC was more than 100 µM in each case. For the same compound, the TGI in the assay on 786-0 renal, with SN12C renal, with SF-295 CNS, in the assay on K-562 leukemia, in the assay with SK-OV-3 ovarian and with BT-549 breast was more than 100 µM in each case. The TGI in the assay with OVCAR-4 ovarian, with PC-3 prostate, in the assay on NCI/ADR-RES ovarian, in the assay on LOX IMVI melanoma, in the assay with OVCAR-5 ovarian and with KM12 colon was more than 100 µM each time. Moreover, the TGI in the assay on RXF 393 renal is more than 100 µM.

Take `CC(=O)O[C@H]1[C@@H](N2CCOCC2)C[C@H]2[C@@H]3CC=C4C[C@@H](N5CCCC5)CC[C@]4(C)[C@H]3CC[C@@]21C`: the TGI with UACC-257 melanoma, in the assay on UACC-62 melanoma, in the assay on M14 melanoma, in the assay with DU-145 prostate, with SK-MEL-2 melanoma and in the assay on HOP-62 NSCLC was more than 100 µM each time. Further, the TGI in the assay on 786-0 renal, with SN12C renal, in the assay with SF-295 CNS, in the assay on K-562 leukemia, in the assay on SK-OV-3 ovarian and in the assay with UO-31 renal was more than 100 µM each time. In addition, the TGI in the assay on BT-549 breast, in the assay on OVCAR-4 ovarian, with PC-3 prostate, in the assay with NCI/ADR-RES ovarian, with LOX IMVI melanoma and in the assay on OVCAR-5 ovarian was more than 100 µM throughout. Moreover, the TGI in the assay with KM12 colon and in the assay on RXF 393 renal was more than 100 µM in each case.
